Assay results published in patent publication EP1816121B1, “9-Chloro-15-deoxyprostaglandin derivatives, process for their preparation and their use as medicaments” (Bayer Schering Pharma Aktiengesellschaft, priority 2005, dated 2007).

Tests used:
[1] = tested on: Human monocyte derived dendritic cells; experiment: Human monocyte derived dendritic cell cytokine release, IL-10; assay type: cell-based; conditions: 18 h
Description: (§1) Following stimulation through the toll-like receptors (TLR) DCs express and release proinflammatory cytokines and chemokines and may induce activation and proliferation of naïve T cells. The binding of an EP2 agonist to the DC EP receptor inhibits TLR4 ligand (LPS) stimulated Interleukin 12 (IL-12) release. […] Therefore an EP2 agonist skews the CD4 T cell differentiation away from the Th- lineage.
IL-10 initially designated cytokine synthesis inhibitory factor (CSIF), was originally identified as a product of Th-2 clones that suppressed the production of cytokines by Th-1 clones responding to stimulation by antigen in the presence of antigen-presenting cells. IL-10 is a dimer composed of two identical 160 amino acid subunits. Enzyme linked immuno sorbant assays (ELISA) based on antibodies specific to IL-10 are commercially available. Standards and samples are pipetted into the wells of a microplate. An antibody specific to human IL-10 is added to the wells. A substrate is added to the wells and color develops in proportion to the amount of IL-10 bound. The intensity of the color is measured.
(§2) Human monocyte derived dendritic cells are isolated from human donors using a Ficoll density gradient and residual erythrocytes removed by selective lysis. CD14 MicroBeads are used for separation of human cells based on the expression of the CD14 antigen. The dendritic cells are cultured at approximately 1.5 x 10^6 cells per ml in RPMI 1640 with fetal bovine serum, 200 ng/ml GM-CSF (Leukine) and 10 ng/ml IL-4. The cells grow-for a period of 3 days and then the media is changed. 10ng/ml LPS is used to activate the cells. 1µM of substance (EP2 agonist) and 1µM of PGE2 are added during the LPS stimulation. Cells are incubated for approximately 18 hr at 37C. IL-12 and II-10 released during activation is measured by ELISA.

[2] = tested on: Human monocyte derived dendritic cells; experiment: Inhibition of human monocyte derived dendritic cell cytokine release, IL-12; assay type: cell-based; conditions: 18 h
Description: as §1
IL-12 is a 75 kDa glycoprotein heterodimer (p70) composed of two genetically unrelated subunits linked by a disulfide bond. Enzyme linked immuno sorbant assays (ELISA) based on antibodies specific to IL-12 p70 are commercially available. Standards and samples are pipetted into the wells of a microplate. An antibody specific to human IL-12 is added to the wells. A substrate is added to the wells and color develops in proportion to the amount of IL-12 bound. The intensity of the color is measured.
as §2

[3] = Donor 1, read-out: % inhibition below untreated, LPS- stimulated control
[4] = Donor 2, read-out: % inhibition below untreated, LPS- stimulated control
[5] = Donor 3, read-out: % inhibition below untreated, LPS- stimulated control

Structure (SMILES): CCCCC[C@H](O)/C=C/[C@H]1[C@H](O)CC(=O)[C@@H]1C/C=C\CCCC(=O)O [PGE2, prostaglandin E2]
- inhibition at 1 µM [1, 3]: 103%
- inhibition at 1 µM [1, 4]: 134%
- inhibition at 1 µM [1, 5]: 107%
- inhibition at 1 µM [2, 3]: 78%
- inhibition at 1 µM [2, 4]: 44%
- inhibition at 1 µM [2, 5]: 84%
- inhibition at 1 µM ([2]; Donor 4, read-out: % inhibition below untreated, LPS- stimulated control): 29%
